Measured values: patent US12310964B2, “Compositions and methods for the treatment of Lowe Syndrome” (Purdue Research Foundation, priority 2020, dated 2025)

Tests used:
Format in all cases: cell-based, Human
[1] = tested on: LS patient cells; experiment: Cell adhesion by time-lapse microscopy
Method: (§1) Human dermal fibroblasts were treated as described above, seeded on fibronectin-coated LabTek chambers, and allowed to attach and spread. Cells were imaged at intervals of 10 min after seeding for 8 h using 20× objective in a Zeiss Axiovert inverted microscope. Number of detaching cells was quantified every 10 min up to the first hour by using the cell counter tool in ImageJ (NIH). To determine spreading kinetics, individual cells were tracked in each time lapse image and were scored from 1-5 based on general cell morphology. Briefly, cells that were just attached and looked circular with no protrusions or visible extensions received a score of 1. Cells with needle-like (filopodia) projections were scored 2, cells with lamellopodia-like extensions were scored 3, cells with more extended lamellopodia-like extensions and increased cell area were given a score of 4, and a further increase in cell area, often accompanied by isotropic spread morphology, was given a score of 5.
Alternatively, cells were treated as described above and allowed to attach on fibronectin-coated dishes. Immediately after seeding, the cells were imaged with a 10× objective simultaneously using up to 3 Cytosmart Imaging Systems (Lonza, Basel, Switzerland) at intervals of 30 s for 2 h. Number of cells attached was quantified every 10 min up to the first hour using the Cell Counter tool in ImageJ software (NIH). […]

[2] = tested on: LS patient cells; experiment: Spreading at multiple time points (spreading score, time-lapse); conditions: LS patient cells treated with rosuvastatin; non-linear regression of FIG. 4 data
Method: as §1
A von Bertalanffy logistic model was adopted to fit the data presented in FIG. 3A (adhesion) and FIG. 4 (spreading) as shown in Table 3. […] The associated error ΔK was estimated using standard rules of error propagation based on the determined T0.5 error (ΔT0.5), according to ΔK=K(ΔT0.5/T0.5).

[3] = tested on: LS patient cells; experiment: Cell spreading assay after a predetermined time-point (cell area)
Method: Two approaches to monitor cell spreading were used: after a predetermined time-point and at multiple time points.
1) Spreading after a Predetermined Time-Point.
(§2) Human dermal fibroblasts (12 h after seeding) were treated with the indicated drug (or vehicle) in 0.1% serum for the indicated time. After drug treatment, the cells were lifted with 20 mM EDTA (ethylenediaminetetraacetic acid) in PBS (phosphate-buffered saline), pelleted at 300×g for 5 min and resuspended in 1% serum in the presence of drug or vehicle. Cell suspensions were then set in a rotator for 1 hour before seeding them on fibronectin-coated coverslips for 30 min, undisturbed, to allow attachment and spreading. After spreading, coverslips were gently rinsed with PBS and fixed in 4% formaldehyde for 10 min at room temperature. Cells were stained with rhodamine—phalloidin and imaged by epifluorescence microscopy. At least 50 cells were quantified per experiment by tracing and measuring cell areas by using the magic wand tool in ImageJ software (National Institutes of Health (NIH), Bethesda, MD, USA).
(§3) Cell spreading on fibronectin-coated surfaces of cells treated with RhoA modulators in comparison to untreated cells was observed. Cells were fixed and stained with fluorescently labeled-phalloidin after 30 min spreading time at 37° C. Following imaging, cell area measurements were performed.

[4] = tested on: Normal fibroblasts; experiment: as above; conditions: 30 min after seeding on fibronectin
Method: as §2, §3

[5] = tested on: Focal Adhesion Kinase (FAK); experiment: Focal adhesion immunofluorescence (phospho-FAK), confocal microscopy; conditions: LS cells
Method: Cells were prepared as described under “Spreading after a pre-determined time point.” After fixation, indirect immunofluorescence was performed using antibodies against phospho-FAK (Y397) or vinculin. Briefly, cells were gently washed with PBS, fixed with 4% formaldehyde-PBS for 10 min and permeabilized using 0.25% Triton-X 100 in PBS for 20 min, followed by blocking with 5% BSA (bovine serum albumin) in PBS for 30 min. Cells were also immuno-stained with Phalloidin-FITC and DAPI to label the actin cytoskeleton and nucleus, respectively. Images were acquired at the Indiana O'Brien Center for Biological Microscopy (ICBM; Division of Nephrology, Indiana University School of Medicine, Indianapolis, IN, USA) using an Olympus IX81 inverted confocal microscope. A 60× Oil objective (NA 1.42) was used and randomly selected fields were imaged using constant voltage, gain and intensity for the different groups, as well as uniform step size (0.19 μm) using sequential image collection mode.

[6] = tested on: LS patient cells; experiment: Viability/toxicity assessment (cell counting, morphology, MTT)
Method: Cells were incubated with the indicated drugs for the specified times at different concentrations as described in low serum (0.1%) media to avoid substantial protein-mediated drug sequestration. In addition to cell counting post-treatment, a sample of cells seeded on fibronectin-coated coverslips was fixed and stained with fluorescein isothiocyanate (FITC)-phalloidin and DAPI (4′,6-diamidino-2-phenylindole) for cell morphology inspection. Viability was monitored by performing MTT (3-(4,5-dimethylthiazol-2-yl)-2,5-diphenyltetrazolium bromide) assays as follows: Following treatment of cells (in triplicates) with indicated drugs at different concentrations for specified times, media were aspirated and replaced with MTT solution (freshly prepared at 0.5 mg/ml in complete media) and incubated for 1.5 h. Additionally, a blank control with only MTT reagent containing no cells was also prepared. Following incubation, solution was aspirated and MTT was immediately solubilized using 1 mL DMSO (dimethylsulfoxide) (per well) by gentle pipetting. Absorbance values of solubilized MTT solution from the different wells were measured at 570 nm using a spectrophotometer.

[7] = tested on: Rac1; experiment: Rac1 FRET biosensor assay; conditions: LS cells, FRET-based biosensor
Method: FIG. 9. […] LS patient cells expressing Rac1 FRET probe were treated with vehicle or rosuvastatin, imaged and FRET signals analyzed by the ratiometric method (*p<0.05, Wilcoxon test).

[8] = tested on: normal cells; experiment: Ciliogenesis assay
Method: Cells were seeded on glass cover slips and grown for 24 h in complete media. Then media was replaced by 0.1% serum DMEM (starvation media) containing vehicle or the drug to induce ciliogenesis for the indicated times. Cells were then fixed in 4% formaldehyde—PBS for 10 min and immuno-labeled with anti-acetylated tubulin antibody (see Table 2). At least 50 cells were imaged for every experiment and experiments were repeated at least thrice. The fraction of cells displaying cilia and cilia length were determined as described previously (Coon et al. (2012), supra).

[9] = tested on: HMG-CoA reductase in LS cells; experiment: Cholesterol uptake assay; conditions: LS patient fibroblasts in Cho-free media
Method: Assay for cholesterol uptake was performed using cholesterol-free media and an AbCam kit (ab236212; Cambridge, UK) according to manufacturer's instructions.

CC(C)c1nc(N(C)S(C)(=O)=O)nc(-c2ccc(F)cc2)c1/C=C/[C@@H](O)C[C@@H](O)CC(=O)O [rosuvastatin]
LS cell adhesion defect ([1]; LS cells on fibronectin-coated surfaces): alleviated the LS cell adhesion defect | Adhesion, Process Continuous Rate ([1]; LS patient cells treated with rosuvastatin, fibronectin-coated surfaces, non-linear regression of FIG. 3A data): 35 ± 5 min^−1 × 10^3 | Spreading, Process Continuous Rate [2]: 24 ± 2 min^−1 × 10^3 | LS spreading phenotype alleviation, acute dose ([3]; 100 μM for 1 h): Phenotype alleviation was observed | cell spreading / membrane remodeling phenotype in cells from another LS patient ([3]; LS2 cells, FIG. 8A): ameliorated | LS cell spreading phenotype ([3]; LS patient fibroblasts, 30 min after seeding on fibronectin): mitigated to a certain extent the LS spreading phenotype | ranking of statins: rescue effect over needed dose and toxicity ([3]; LS spreading defects): produced the best results | cell spreading of normal cells [4]: No obvious effect | peripherally activated FAK (phospho-Tyr397) abnormality [5]: alleviated | toxicity, chronic exposure ([6]; 10 μM for ≥72 h): relatively innocuous | toxicity, acute dose ([6]; 100 μM, exposure time≥15 h): induced toxicity | toxicity (viability and stress-induced changes in morphology) ([6]; LS cells after exposure to statins): minimal toxicity | Rac1 activation levels [7]: raised | ciliogenesis by normal cells [8]: No obvious effect | uptake of fluorescently labeled Cho (inhibition of cholesterol biosynthesis) [9]: less acute inhibition of cholesterol biosynthesis
